Source: PubChem BioAssay AID1745844 (Carcinogenic Potency Database (CPDB), 2022)
The source made the active and inactive calls. How the calls were made is not given here.

Test system: rodent lifetime carcinogenesis bioassay, tumor incidence TD50
Assay: chronic cancer bioassays in animals – CPDB, compiled studies (AID 1745844)

Oc1c(Cl)cc(Cl)c(Cl)c1Cc1c(O)c(Cl)cc(Cl)c1Cl
carcinogen call (mouse, strain C57BL, females, in feed, site: any site (literature study), lesion: several types, types named in the paper, dosed 104 weeks, study length 104 weeks): negative (inactive)
TD50 (mouse, strain C57BL, females, in feed, site: liver, lesion: hepatoma, dosed 104 weeks, study length 104 weeks): 434 mg/kg/day (inactive)
TD50 (mouse, strain C57BL, males, in feed, site: any site (literature study), lesion: several types, types named in the paper, dosed 104 weeks, study length 104 weeks): 900 mg/kg/day (inactive)
carcinogen call (mouse, strain C57BL, males, in feed, site: liver, lesion: one or several types, types not named, dosed 104 weeks, study length 104 weeks): negative (inactive)
carcinogen call (mouse, strain C57BL, males, in feed, site: lung, lesion: one or several types, types not named, dosed 104 weeks, study length 104 weeks): negative (inactive)
TD50 (mouse, strain XVII/G, females, in feed, site: any site (literature study), lesion: several types, types named in the paper, dosed 104 weeks, study length 104 weeks): 39.4 mg/kg/day (inactive)
carcinogen call (mouse, strain XVII/G, females, in feed, site: liver, lesion: one or several types, types not named, dosed 104 weeks, study length 104 weeks): negative (inactive)
TD50 (mouse, strain XVII/G, females, in feed, site: lung, lesion: one or several types, types not named, dosed 104 weeks, study length 104 weeks): 33.4 mg/kg/day (inactive)
TD50 (mouse, strain XVII/G, males, in feed, site: any site (literature study), lesion: several types, types named in the paper, dosed 104 weeks, study length 104 weeks): 17.8 mg/kg/day (inactive)
TD50 (mouse, strain XVII/G, males, in feed, site: liver, lesion: adenoma, dosed 104 weeks, study length 104 weeks): 450 mg/kg/day (inactive)
TD50 (mouse, strain XVII/G, males, in feed, site: lung, lesion: one or several types, types not named, dosed 104 weeks, study length 104 weeks): 17.8 mg/kg/day (inactive)
carcinogen call (rat, strain Fischer 344, females, in feed, site: any site (literature study), lesion: several types, types named in the paper, dosed 106 weeks, study length 106 weeks): negative (inactive)
TD50 (rat, strain Fischer 344, males, in feed, site: any site (literature study), lesion: several types, types named in the paper, dosed 106 weeks, study length 106 weeks): 30.4 mg/kg/day
TD50 (rat, strain Fischer 344, males, in feed, site: subcutaneous tissue, lesion: fibrosarcoma, dosed 106 weeks, study length 106 weeks): 41.3 mg/kg/day (inactive)
TD50 (rat, strain Fischer 344, males, in feed, site: tunica vaginalis, lesion: mesothelioma, NOS, dosed 106 weeks, study length 106 weeks): 57.5 mg/kg/day

COc1ccc(N)c(C)c1
TD50 (mouse, strain B6C3F1, females, by gavage, site: any site (literature study), lesion: several types, types named in the paper, dosed 53 weeks, study length 93 weeks): 69.2 mg/kg/day
TD50 (mouse, strain B6C3F1, females, by gavage, site: liver, lesion: hepatocellular adenoma + hepatocellular carcinoma + neoplastic nodule, dosed 53 weeks, study length 93 weeks): 206 mg/kg/day
TD50 (mouse, strain B6C3F1, females, by gavage, site: liver, lesion: hepatocellular adenoma + hepatocellular carcinoma, dosed 53 weeks, study length 93 weeks): 206 mg/kg/day (inactive)
TD50 (mouse, strain B6C3F1, females, by gavage, site: lung, lesion: alveolar/bronchiolar adenoma + alveolar/bronchiolar carcinoma, dosed 53 weeks, study length 93 weeks): 250 mg/kg/day
TD50 (mouse, strain B6C3F1, males, by gavage, site: any site (literature study), lesion: several types, types named in the paper, dosed 53 weeks, study length 93 weeks): 72.2 mg/kg/day
TD50 (rat, strain Fischer 344, females, by gavage, site: any site (literature study), lesion: several types, types named in the paper, dosed 77 weeks, study length 109 weeks): 51.5 mg/kg/day
TD50 (rat, strain Fischer 344, females, by gavage, site: liver, lesion: hepatocellular adenoma + hepatocellular carcinoma + neoplastic nodule, dosed 77 weeks, study length 109 weeks): 1100 mg/kg/day
TD50 (rat, strain Fischer 344, females, by gavage, site: mammary gland, lesion: fibroadenoma, dosed 77 weeks, study length 109 weeks): 52.7 mg/kg/day
TD50 (rat, strain Fischer 344, females, by gavage, site: urinary bladder, lesion: transitional-cell carcinoma, dosed 77 weeks, study length 109 weeks): 769 mg/kg/day
TD50 (rat, strain Fischer 344, males, by gavage, site: any site (literature study), lesion: several types, types named in the paper, dosed 77 weeks, study length 109 weeks): 368 mg/kg/day
TD50 (rat, strain Fischer 344, males, by gavage, site: liver, lesion: hepatocellular adenoma + hepatocellular carcinoma + neoplastic nodule, dosed 77 weeks, study length 109 weeks): 506 mg/kg/day
TD50 (rat, strain Fischer 344, males, by gavage, site: urinary bladder, lesion: transitional-cell carcinoma, dosed 77 weeks, study length 109 weeks): 470 mg/kg/day

CCN(N=O)C(=O)NCCO
TD50 (hamster, strain Syrian Golden, females, by gavage, site: cervix uteri, lesion: one or several types, types not named, dosed 30 weeks, study length 75 weeks): 1.04 mg/kg/day
TD50 (hamster, strain Syrian Golden, females, by gavage, site: forestomach, lesion: benign tumor, dosed 30 weeks, study length 75 weeks): 1.76 mg/kg/day
TD50 (hamster, strain Syrian Golden, females, by gavage, site: liver, lesion: cholangioma, dosed 30 weeks, study length 75 weeks): 27.5 mg/kg/day
TD50 (hamster, strain Syrian Golden, females, by gavage, site: spleen, lesion: all vascular tumors, dosed 30 weeks, study length 75 weeks): 3.05 mg/kg/day
TD50 (rat, strain Fischer 344, females, in drinking water, site: mammary tissue, wider than the gland, lesion: carcinoma, dosed 30 weeks, study length 104 weeks): 0.748 mg/kg/day
TD50 (rat, strain Fischer 344, females, in drinking water, site: nervous system, lesion: one or several types, types not named, dosed 30 weeks, study length 104 weeks): 0.714 mg/kg/day
TD50 (rat, strain Fischer 344, females, in drinking water, site: skin, lesion: one or several types, types not named, dosed 30 weeks, study length 104 weeks): 0.956 mg/kg/day
TD50 (rat, strain Fischer 344, females, in drinking water, site: uterus, lesion: one or several types, types not named, dosed 30 weeks, study length 104 weeks): 0.972 mg/kg/day
TD50 (rat, strain Fischer 344, males, in drinking water, site: lung, lesion: one or several types, types not named, dosed 30 weeks, study length 104 weeks): 0.39 mg/kg/day
TD50 (rat, strain Fischer 344, males, in drinking water, site: nervous system, lesion: one or several types, types not named, dosed 30 weeks, study length 104 weeks): 0.769 mg/kg/day
TD50 (rat, strain Fischer 344, males, in drinking water, site: skin, lesion: one or several types, types not named, dosed 30 weeks, study length 104 weeks): 0.401 mg/kg/day
TD50 (rat, strain Fischer 344, males, in drinking water, site: tunica vaginalis, lesion: mesothelioma, dosed 30 weeks, study length 104 weeks): 0.226 mg/kg/day
